Results: the Kinase Knowledgebase extract (Sharma et al. 2016)
Converted amounts (≈) assume the structure as drawn.

Assays:
MAPK14 [1] = target: MAPK14 (UniProt Q16539); assay: Inhibition of MAPK14 Kinase Activity (Binding Assay)
MAPK14 [2] = target: MAPK14 (UniProt Q16539); assay: Inhibition of MAPK14 Kinase Activity (Spectrophometric Assay); settings: concentration not given here
MAPK14 [3] = target: MAPK14 (UniProt Q16539); assay: Cascade Assay for Inhibitors of the MAP Kinase Pathway
CDK2 [4] = target: CDK2 (UniProt P24941); assay: Enzyme Assay
CDK2 (human) [5] = target: CDK2 (human) (UniProt P24941); assay: Enzyme Assay
CDK2 [6] = target: CDK2 (UniProt P24941); assay: Enzyme Assay; remark: listed apart in the source
CDK2 (human) [7] = target: CDK2 (human) (UniProt P24941); assay: Enzyme Assay; remark: listed apart in the source
MAPK14 [8] = target: MAPK14 (UniProt Q16539); assay: Inhibition of MAPK14 Kinase Activity
MAPK14 [9] = target: MAPK14 (UniProt Q16539); assay: Inhibition of TNF-alpha Production
EGFR (murine) [10] = target: EGFR (murine) (UniProt P00533); settings: nih3t3
Chain of EGFR (murine) (P00533 whole entry, looked up): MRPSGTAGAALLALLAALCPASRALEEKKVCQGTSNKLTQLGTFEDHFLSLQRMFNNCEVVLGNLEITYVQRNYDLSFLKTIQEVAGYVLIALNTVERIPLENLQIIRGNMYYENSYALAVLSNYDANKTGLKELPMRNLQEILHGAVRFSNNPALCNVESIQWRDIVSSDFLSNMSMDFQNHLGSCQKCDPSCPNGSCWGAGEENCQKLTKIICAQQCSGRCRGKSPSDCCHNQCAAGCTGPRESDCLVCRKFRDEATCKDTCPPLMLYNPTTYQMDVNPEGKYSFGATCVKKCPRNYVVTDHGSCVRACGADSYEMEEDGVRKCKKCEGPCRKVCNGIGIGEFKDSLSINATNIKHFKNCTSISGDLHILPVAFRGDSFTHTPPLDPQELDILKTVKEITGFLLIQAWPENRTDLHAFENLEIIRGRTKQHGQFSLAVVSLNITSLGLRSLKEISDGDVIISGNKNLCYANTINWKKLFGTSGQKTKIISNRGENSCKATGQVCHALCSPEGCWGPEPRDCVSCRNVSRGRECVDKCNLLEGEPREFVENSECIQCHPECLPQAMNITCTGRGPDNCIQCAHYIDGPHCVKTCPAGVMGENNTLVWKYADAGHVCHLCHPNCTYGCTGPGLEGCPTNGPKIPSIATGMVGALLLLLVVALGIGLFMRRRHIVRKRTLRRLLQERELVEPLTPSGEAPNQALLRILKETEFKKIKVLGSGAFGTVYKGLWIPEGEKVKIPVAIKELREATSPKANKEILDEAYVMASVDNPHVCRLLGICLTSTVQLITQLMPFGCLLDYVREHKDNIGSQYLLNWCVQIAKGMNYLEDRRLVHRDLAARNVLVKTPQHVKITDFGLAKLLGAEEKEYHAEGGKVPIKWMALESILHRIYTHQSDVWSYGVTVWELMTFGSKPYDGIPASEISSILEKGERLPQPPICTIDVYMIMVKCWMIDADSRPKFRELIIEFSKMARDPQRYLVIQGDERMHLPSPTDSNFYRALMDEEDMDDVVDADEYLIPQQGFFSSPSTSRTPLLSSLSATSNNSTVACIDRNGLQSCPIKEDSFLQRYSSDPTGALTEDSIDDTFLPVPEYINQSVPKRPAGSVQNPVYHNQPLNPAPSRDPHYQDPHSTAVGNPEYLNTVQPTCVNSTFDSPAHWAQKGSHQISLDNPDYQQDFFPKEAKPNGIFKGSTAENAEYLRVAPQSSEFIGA

MAPK14 (human) = MAPK14 (human) (UniProt Q16539); assay: Inhibition of MAPK14 Kinase Activity
Chain of MAPK14 (human) (Q16539 whole entry, looked up): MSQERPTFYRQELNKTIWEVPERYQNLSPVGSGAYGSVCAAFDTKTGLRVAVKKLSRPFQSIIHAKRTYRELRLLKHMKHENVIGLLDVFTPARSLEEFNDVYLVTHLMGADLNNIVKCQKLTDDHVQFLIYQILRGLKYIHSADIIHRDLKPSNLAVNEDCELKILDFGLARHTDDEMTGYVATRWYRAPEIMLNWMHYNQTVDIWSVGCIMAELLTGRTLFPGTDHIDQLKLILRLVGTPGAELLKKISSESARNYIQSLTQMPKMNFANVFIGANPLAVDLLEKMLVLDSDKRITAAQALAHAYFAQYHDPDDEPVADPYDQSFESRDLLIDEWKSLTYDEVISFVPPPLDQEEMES

EGFR (human) [11] = target: EGFR (human) (UniProt P00533); settings: a431
Chain of EGFR (human) (P00533 whole entry, looked up): as the sequence (P00533 whole entry, looked up) above

ROCK2 = ROCK2 (UniProt O75116); assay: Inhibition of ROCK-II Kinase Activity; settings: concentration not given here
EGFR [12] = target: EGFR (UniProt P00533)
Chain of EGFR (P00533 whole entry, looked up): as above

EGFR (human) [13] = target: EGFR (human) (UniProt P00533); settings: hn5
EGFR [14] = target: EGFR (UniProt P00533); settings: balb/c 3t3
EGFR (murine) [15] = target: EGFR (murine) (UniProt P00533); settings: f/l-herc
EGFR [16] = target: EGFR (UniProt P00533); settings: concentration not given here
EGFR [17] = target: EGFR (UniProt P00533); remark: listed apart in the source
EGFR (mouse) [18] = target: EGFR (mouse) (UniProt P00533); settings: balb/mk
EGFR (human) [19] = target: EGFR (human) (UniProt P00533)
EGFR [20] = target: EGFR (UniProt P00533); remark: listed apart in the source
MAPK14 [21] = target: MAPK14 (UniProt Q16539); assay: CSBP binding - Inhibition of RBL-1 5 Lipoxygenase Enzyme Assay
MAPK14 [22] = target: MAPK14 (UniProt Q16539); assay: CSBP binding - Inhibition of Prostaglandin H Synthase Type-1 Enzyme Assay
EGFR (human) [23] = target: EGFR (human) (UniProt P00533); settings: a431; remark: listed apart in the source
EGFR (mouse) [24] = target: EGFR (mouse) (UniProt P00533); settings: Swiss 3T3
EGFR [25] = target: EGFR (UniProt P00533); remark: listed apart in the source
EGFR (human) [26] = target: EGFR (human) (UniProt P00533); remark: listed apart in the source
EGFR [27] = target: EGFR (UniProt P00533); remark: listed apart in the source
MAPK14 [28] = target: MAPK14 (UniProt Q16539); assay: MAPK Kinase Inhibition
EGFR (human) [29] = target: EGFR (human) (UniProt P00533); remark: listed apart in the source
EGFR [30] = target: EGFR (UniProt P00533); assay: Inhibition of EGFr Enzyme
EGFR [31] = target: EGFR (UniProt P00533); remark: listed apart in the source

Chain of MAPK14 (Q16539 whole entry, looked up): as the sequence (Q16539 whole entry, looked up) above

SMILES: CC12CC(C(=O)O)CC(C)(C1)C(=O)N(Cc1cccc(-n3nc(C(C)(C)C)cc3NC(=O)Nc3ccc(Cl)cc3)c1)C2=O (configuration not stated)
- IC50 (MAPK14 [1]): 10 µM
- inhibition (MAPK14 [2]): 70%

SMILES: COc1ccc(CN(Cc2ccc(OC)cc2)S(=O)(=O)c2cc(C(=O)O)c(Nc3ccc(I)cc3Cl)c(F)c2F)cc1
- IC50 (MAPK14 [3]): 3 µM

SMILES: O=C1Nc2ccccc2/C1=C1/Nc2ccccc2C1=O
- IC50 (CDK2 [4]): 2.2 µM
- IC50 (CDK2 (human) [5]): 2.2 µM
- IC50 (CDK2 [6]): 7.5 µM
- IC50 (CDK2 (human) [7]): 7.5 µM

SMILES: CN1CC2CCC1CC2Nc1cc(-c2ccccc2Cl)c2c(c1)N(c1c(Cl)cccc1Cl)C(=O)NC2 (configuration not stated)
- IC50 (MAPK14 [8]): 0.0004 µM
- IC50 (MAPK14 [9]): 0.02 µM

SMILES: O=C1Nc2ccccc2/C1=C/c1ccccc1
- IC50 (EGFR (murine) [10]): > 100 µM

SMILES: N#Cc1cnc2cnc(NCc3cccnc3)cc2c1NC1CCCCCC1
- IC50 (MAPK14 (human)): > 40 µM
- IC50 (EGFR (human) [11]): > 40 µM

SMILES: Brc1c(Br)c(Br)c2[nH]nnc2c1Br
- inhibition (MAPK14 [8]; concentration not given here): -7%
- inhibition (ROCK2): 9%

SMILES: COc1ccc(C#CC(C)(C)O)cc1-c1n[nH]c2nc(Nc3ccc(F)cc3F)ncc12
- IC50 (EGFR [12]): 5.2 µM

SMILES: CS(=O)(=O)CCNCCCCOc1ccc2ncnc(Nc3ccc(F)c(Cl)c3)c2c1
- IC50 (EGFR (human) [13]): 0.071 µM

SMILES: O=C1Nc2ccccc2/C1=C/c1ccncc1
- IC50 (EGFR (murine) [10]): > 100 µM

SMILES: Clc1cccc(Nc2ncnc3[nH]c4ccccc4c23)c1
- IC50 (EGFR [14]): 0.1 µM

SMILES: Brc1cccc(Nc2ncnc3c2C2CCCCC2N3)c1 (configuration not stated)
- IC50 (EGFR [14]): 0.5 µM

SMILES: O=C(N(c1ncc2ncnc(Nc3ccc(F)c(Cl)c3)c2n1)C1CCNCC1)C(F)(F)F
- IC50 (EGFR (murine) [15]): > 20 µM

SMILES: O=C1NC(=O)c2c1c1c3ccccc3[nH]c1c1[nH]c3cc(O)c(O)cc3c21
- inhibition (EGFR [16]): 50 to 80%

SMILES: CN1C2CC[C@@]1(Nc1ncc3ncnc(Nc4ccc(F)c(Cl)c4)c3n1)CC(O)C2 (some centres not stated)
- IC50 (EGFR (murine) [15]): > 10 µM

SMILES: COc1ccc2c(Nc3cccc(Br)c3)ncnc2c1OC
- IC50 (EGFR [17]): > 10 µM

SMILES: COc1ccc2ncnc(Nc3cccc(Br)c3)c2c1OC
- IC50 (EGFR [17]): 1.37 µM

SMILES: Brc1cccc(Nc2ncnc3cc4c(cc23)OCO4)c1
- IC50 (EGFR [17]): 0.015 µM

SMILES: Clc1cccc(Nc2ncnc3[nH]c(-c4ccccc4)c(-c4ccccc4)c23)c1
- IC50 (EGFR (mouse) [18]): > 50 µM

SMILES: N#Cc1cnc2cc3c(cc2c1Nc1ccc(F)c(Cl)c1)N(C(=O)/C=C/CBr)CCO3
- IC50 (EGFR (human) [19]): 1 µM

SMILES: CN1CC2CCC1CC2Nc1cc2c(ccc(=O)n2-c2c(Cl)cccc2Cl)c(-c2ccccc2Cl)n1 (configuration not stated)
- IC50 (MAPK14 [8]): 0.0004 µM
- IC50 (MAPK14 [9]): 0.024 µM

SMILES: CNC(=O)N1CCN(Cc2ccnc(Nc3ncc(C#N)s3)c2)CC1
- IC50 (CDK2 [4]): 3.94 µM
- IC50 (EGFR [20]): > 19.2 µM

SMILES: Clc1ccc(-c2ncn(CCCN3CCOCC3)c2-c2ccncc2)cc1Cl
- IC50 (MAPK14 [21]): > 100 µM
- IC50 (MAPK14 [22]): > 100 µM

SMILES: O=C1NCc2c1c1c3ccc(O)cc3[nH]c1c1[nH]c3ccccc3c21
- inhibition (EGFR [16]): 50 to 80%

SMILES: CC(C)(C)c1cc(C=C(C#N)C(N)=S)cc(C(C)(C)C)c1
- IC50 (EGFR (human) [23]): 20 µM

SMILES: Cc1cc2ncc(-c3cccs3)nc2cc1C
- IC50 (EGFR (mouse) [24]): > 30 µM

SMILES: C/C(O)=C(\C#N)C(=O)Nc1cc(Br)ccc1Br
- IC50 (EGFR [25]): > 278 µM
- Ki (EGFR [25]): 166 µM

SMILES: Clc1cccc(Nc2cncc(-c3cncc(NCCCc4ccncc4)c3)n2)c1
- IC50 (EGFR (human) [26]): > 100 µM

SMILES: COc1cc2c(NC3=CC(=O)C(OC(CF)CF)=CC3=O)ncnc2cc1OCC1CCN(C)CC1
- IC50 (EGFR [27]): 1.8 to 117 µM

SMILES: O=C1/C(=C2\Nc3ccccc3C2=O)Nc2ccccc21
- IC50 (CDK2 [4]): 70 µM
- IC50 (CDK2 (human) [5]): 70 µM
- IC50 (CDK2 [6]): > 1000 µM
- IC50 (CDK2 (human) [7]): > 1000 µM

SMILES: CC(C)(C)NC(=O)Nc1nc2nc(N)ncc2cc1-c1c(Cl)cccc1Cl
- IC50 (MAPK14 [28]): 7.1 µM

SMILES: Cc1nc2cc3nc(-c4cccs4)cnc3cc2n1C
- IC50 (EGFR (mouse) [24]): > 30 µM

SMILES: COc1cc2ncc(C#N)c(Nc3ccc(Sc4nc(-c5ccccc5)cs4)c(Cl)c3)c2cc1C(C(N)=O)C(CN(C)C)N(C)C (configuration not stated)
- IC50 (EGFR (human) [29]): 3.2 µg/mL (≈ 4.76 µM)

SMILES: Cc1cccc(Nc2ncnc3cc(NCCCN4CCCCC4)ncc23)c1
- IC50 (EGFR [30]): 5.6 nM

SMILES: CN(C)c1cc2ncnc(Nc3cccc(Br)c3)c2cn1
- IC50 (EGFR [30]): 0.09 nM
- IC50 (EGFR [31]): 0.014 µM

SMILES: CCOC(=O)C(C#N)=Cc1cc(C(C)(C)C)cc(C(C)(C)C)c1
- IC50 (EGFR (human) [23]): 20 µM

SMILES: Cc1c(-c2ccccc2)[nH]c2ncnc(Nc3cccc(Cl)c3)c12
- IC50 (EGFR (mouse) [18]): > 50 µM
